Measurements reported in US12336981B2, “Compounds and compositions for the inhibition of NAMPT” (Valo Health, Inc., priority 2010, dated 2025).
Read-outs that look alike come from different tables or passages of the source.

Assays:
NAMPT = target: T1, NAMPT (Homo sapiens, UniProt P43490); experiment: Biochemical inhibition assay: NAMPT enzymatic reaction, NMN quantified by mass spectrometry; conditions: read-out: Biochem IC50
T1 construct: His tag; host or cells: E. coli
How it was run: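 Inhibition of E. coli-expressed His-tagged human NAMPT, measured as NMN formation by mass spectrometry after a 30 min room-temperature reaction containing 1 μM NAM, 100 μM PRPP and 2.5 mM ATP.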

A2780 cells = experiment: In-vitro cell proliferation assay (SRB), A2780 cells; format: cell-based; conditions: Homo sapiens, A2780, 72 h, A2780 cells, 72 hours, read-out: A2780 IC50
How it was run: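 Read-out is SRB absorbance at 570 nm on TCA-fixed cells after 72 hours of compound treatment at 37° C. in 5% CO2. Background from a media-only plate is subtracted, and % inhibition is interpolated between two tested concentrations.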

T1 sequence (P43490 whole entry): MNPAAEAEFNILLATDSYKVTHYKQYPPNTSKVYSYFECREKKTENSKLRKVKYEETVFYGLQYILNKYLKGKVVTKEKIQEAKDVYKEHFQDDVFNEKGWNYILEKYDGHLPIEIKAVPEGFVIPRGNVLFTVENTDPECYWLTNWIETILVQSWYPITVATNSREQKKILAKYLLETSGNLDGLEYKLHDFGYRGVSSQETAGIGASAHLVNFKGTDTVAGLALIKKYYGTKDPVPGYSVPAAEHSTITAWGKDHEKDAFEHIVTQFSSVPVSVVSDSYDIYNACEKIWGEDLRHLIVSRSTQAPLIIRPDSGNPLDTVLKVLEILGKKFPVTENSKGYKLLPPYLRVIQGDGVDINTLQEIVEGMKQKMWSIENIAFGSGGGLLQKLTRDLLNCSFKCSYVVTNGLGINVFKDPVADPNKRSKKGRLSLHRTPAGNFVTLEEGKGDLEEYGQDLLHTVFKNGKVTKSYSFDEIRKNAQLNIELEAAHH

SMILES	IC50 (NAMPT; NAMPT enzymatic assay) [µM]	IC50 (A2780 cells; SRB) [µM]	IC50 (NAMPT; NAMPT enzymatic reaction) [µM]	IC50 (A2780 cells; SRB assay) [µM]
Cc1cnc(S(=O)(=O)c2ccc(CNC(=O)c3cc4ccncc4o3)cc2)n1C [N-{[4-(1,5-dimethyl-1H-imidazole-2-sulfonyl)phenyl]methyl}furo[2,3-c]pyridine-2-carboxamide]	0.0574	0.0659	–	–
CCOc1ccc(S(=O)(=O)c2ccc(CNC(=O)c3cc4ccncc4s3)cc2)cc1F	–	0.0036	0.0089	–
O=C(NCc1ccc(S(=O)(=O)c2ccc(F)c(C(F)(F)F)c2)cc1)c1cc2ccncc2s1	0.004	0.0028	–	–
Cc1cc(-n2cccn2)ccc1S(=O)(=O)c1ccc(CNC(=O)c2cnc3[nH]ncc3c2)cc1	0.0271	0.0235	–	–
COc1ccc(F)c(S(=O)(=O)c2ccc(CNC(=O)c3ccc4nccn4c3)cc2)c1	–	0.0128	0.0047	–
COc1ccc(F)cc1NS(=O)(=O)c1ccc(CNC(=O)c2cc3cnccc3[nH]2)cc1 [N-({4-[(5-fluoro-2-methoxyphenyl)sulfamoyl]phenyl}methyl)-1H-pyrrolo[3,2-c]pyridine-2-carboxamide]	–	–	0.232	> 30
Cc1csc(S(=O)(=O)c2ccc(CNC(=O)c3ccc4nccn4c3)cc2)c1 [N-{[4-(4-methylthiophene-2-sulfonyl)phenyl]methyl}imidazo[1,2-a]pyridine-6-carboxamide]	0.0124	0.0125	–	–
CCCOc1ccc(S(=O)(=O)c2ccc(CNC(=O)c3cc4ccncc4s3)cc2)cc1Cl	–	0.0174	0.0151	–
CCOc1cc(S(=O)(=O)c2ccc(CNC(=O)c3cnc4[nH]ncc4c3)cc2)ccc1F [N-({4-[(3-ethoxy-4-fluorobenzene)sulfonyl]phenyl}methyl)-1H-pyrazolo[3,4-b]pyridine-5-carboxamide]	–	0.012	0.0261	–
CCOc1ccc(S(=O)(=O)c2ccc(CNC(=O)c3cnc4[nH]ncc4c3)cc2)cc1F	–	0.0052	0.0095	–
CCCS(=O)(=O)Nc1cccc(S(=O)(=O)c2ccc(CNC(=O)c3cnc4nccn4c3)cc2)c1	0.0023	0.0862	–	–
COc1cccc(F)c1S(=O)(=O)c1ccc(CNC(=O)c2ccc3nccn3c2)cc1 [N-({4-[(2-fluoro-6-methoxybenzene)sulfonyl]phenyl}methyl)imidazo[1,2-a]pyridine-6-carboxamide]	–	0.0264	0.0481	–
O=C(NCC1CCN(S(=O)(=O)c2ccccc2)CC1)c1cc2cnccc2[nH]1 [N-{[1-(benzenesulfonyl)piperidin-4-yl]methyl}-1H-pyrrolo[3,2-c]pyridine-2-carboxamide]	–	–	0.015	0.009
CCCCOc1ccc(Cl)cc1S(=O)(=O)c1ccc(CNC(=O)c2ccc3nccn3c2)cc1	–	0.008	0.011	–
Cc1ccc(C)c(S(=O)(=O)c2ccc(CNC(=O)c3cc4ccncc4s3)cc2)c1 [N-({4-[(2,5-dimethylbenzene)sulfonyl]phenyl}methyl)thieno[2,3-c]pyridine-2-carboxamide]	–	–	0.011	0.0086
COc1cc(OC)cc(S(=O)(=O)c2ccc(CNC(=O)c3cc4ccncc4o3)cc2)c1	–	0.0017	0.0027	–
CC(=O)c1cccc(S(=O)(=O)c2ccc(CNC(=O)c3ccc4nccn4c3)cc2)c1 [N-({4-[(3-acetylbenzene)sulfonyl]phenyl}methyl)imidazo[1,2-a]pyridine-6-carboxamide]	–	0.00637	0.0125	–
O=C(NCc1ccc(S(=O)(=O)c2cnn(-c3cccc(Cl)c3)c2)cc1)c1ccc2nccn2c1 [N-({4-[1-(3-chlorophenyl)-1H-pyrazole-4-sulfonyl]phenyl}methyl)imidazo[1,2-a]pyridine-6-carboxamide]	0.014	0.0064	–	–
CC(C)Oc1cc(F)ccc1S(=O)(=O)c1ccc(CNC(=O)c2cnc3nccn3c2)cc1 [N-[(4-{[4-fluoro-2-(propan-2-yloxy)benzene]sulfonyl}phenyl)methyl]imidazo[1,2-a]pyrimidine-6-carboxamide]	0.0035	0.015	–	–
Cn1ncc2ccc(S(=O)(=O)c3ccc(CNC(=O)c4cc5ccncc5s4)cc3)cc21 [N-{[4-(1-methyl-1H-indazole-6-sulfonyl)phenyl]methyl}thieno[2,3-c]pyridine-2-carboxamide]	0.0023	0.0011	–	–
O=C(NCc1ccc(S(=O)(=O)c2cncc(N3CCCC3)c2)cc1)c1cnc2[nH]ncc2c1 [N-({4-[5-(pyrrolidin-1-yl)pyridine-3-sulfonyl]phenyl}methyl)-1H-pyrazolo[3,4-b]pyridine-5-carboxamide]	0.0179	0.004	–	–
CNC(=O)c1cccc(S(=O)(=O)c2ccc(CNC(=O)c3cc4ccncc4o3)cc2)c1	0.0081	0.0143	–	–
Cn1c(C(=O)NCc2ccc(S(=O)(=O)c3ccccc3)cc2)cc2cnccc21 [N-{[4-(benzenesulfonyl)phenyl]methyl}-1-methyl-1H-pyrrolo[3,2-c]pyridine-2-carboxamide]	–	–	> 10	> 30

SMILES	IC50 (NAMPT; NAMPT enzymatic assay) [µM]	IC50 (A2780 cells; SRB) [µM]	IC50 (NAMPT; NAMPT enzymatic reaction) [µM]	IC50 (A2780 cells; SRB assay) [µM]
CS(=O)(=O)c1ccccc1S(=O)(=O)c1ccc(CNC(=O)c2cc3ccncc3o2)cc1	–	0.1 to 1	0.0542	–
COc1ccc(C(C)(C)C)cc1S(=O)(=O)c1ccc(CNC(=O)c2cnc3nccn3c2)cc1	0.0098	0.0077	–	–
COc1cc(C(F)(F)F)ccc1S(=O)(=O)c1ccc(CNC(=O)c2cnc3[nH]ncc3c2)cc1	0.12	0.0281	–	–
CCCOc1cccc(S(=O)(=O)c2ccc(CNC(=O)c3cc4cnccc4[nH]3)cc2)c1	–	0.0122	0.0102	–
O=C(NCc1ccc(S(=O)(=O)c2ccc(C(F)(F)F)cc2OCC(F)(F)F)cc1)c1cc2cnccc2[nH]1	0.009	0.001	–	–
COc1ccc(Cl)c(S(=O)(=O)c2ccc(CNC(=O)c3cc4cnccc4[nH]3)cc2)c1	–	0.0097	0.011	–
O=C(NCc1ccc(S(=O)(=O)c2cccc3c2OCO3)cc1)c1cnc2nccn2c1 [N-{[4-(2H-1,3-benzodioxole-4-sulfonyl)phenyl]methyl}imidazo[1,2-a]pyrimidine-6-carboxamide]	0.0029	0.0933	–	–
COc1ccc(S(=O)(=O)c2ccc(CNC(=O)c3cc4cnccc4[nH]3)cc2)c(Cl)c1	–	0.0145	0.0093	–
CCOc1cc(S(=O)(=O)c2ccc(CNC(=O)c3cc4ccncc4s3)cc2)ccc1F	–	0.0031	0.0033	–
O=C(NCc1ccc(S(=O)(=O)C2CCCCC2)cc1)c1cc2cnccc2[nH]1 [N-{[4-(cyclohexanesulfonyl)phenyl]methyl}-1H-pyrrolo[3,2-c]pyridine-2-carboxamide]	0.005	0.0176	–	–
O=C(NCc1ccc(S(=O)(=O)c2cccc(OC(F)F)c2)cc1)c1cnc2nccn2c1	0.0021	0.005	–	–
O=C(NCc1ccc(S(=O)(=O)c2cc(C(F)(F)F)ccn2)cc1)c1cnc2nccn2c1 [N-({4-[4-(trifluoromethyl)pyridine-2-sulfonyl]phenyl}methyl)imidazo[1,2-a]pyrimidine-6-carboxamide]	0.0087	0.013	–	–
Cc1nc(S(=O)(=O)c2ccc(CNC(=O)c3cc4ccncc4o3)cc2)ccc1F [N-{[4-(5-fluoro-6-methylpyridine-2-sulfonyl)phenyl]methyl}furo[2,3-c]pyridine-2-carboxamide]	0.0062	0.0124	–	–
CCS(=O)(=O)c1cccc(S(=O)(=O)c2ccc(CNC(=O)c3ccc4nccn4c3)cc2)c1	0.0135	0.006	–	–
O=C(NCc1ccc(S(=O)(=O)c2ccc(N3CCCC3)cc2)cc1)c1ccc2nccn2c1	0.003	0.0014	–	–
COc1ccc(OC)c(S(=O)(=O)c2ccc(CNC(=O)c3cnc4nccn4c3)cc2)c1 [N-({4-[(2,5-dimethoxybenzene)sulfonyl]phenyl}methyl)imidazo[1,2-a]pyrimidine-6-carboxamide]	–	0.0457	0.0069	–
O=C(NCc1ccc(S(=O)(=O)c2ccc(F)c(F)c2)cc1)c1cnc2[nH]ncc2c1	–	0.0289	0.0542	–
O=C(NCc1ccc(S(=O)(=O)c2cncc(Cl)c2)cc1)c1cc2cnccc2[nH]1 [N-{[4-(5-chloropyridine-3-sulfonyl)phenyl]methyl}-1H-pyrrolo[3,2-c]pyridine-2-carboxamide]	0.02	0.0036	–	–
COc1ccc(NS(=O)(=O)c2ccc(CNC(=O)c3cc4cnccc4[nH]3)cc2)c(C)c1 [N-({4-[(4-methoxy-2-methylphenyl)sulfamoyl]phenyl}methyl)-1H-pyrrolo[3,2-c]pyridine-2-carboxamide]	–	–	1.45	> 30
O=C(NCc1ccc(S(=O)(=O)c2ccccc2Cl)cc1)c1cnc2[nH]ncc2c1 [N-({4-[(2-chlorobenzene)sulfonyl]phenyl}methyl)-1H-pyrazolo[3,4-b]pyridine-5-carboxamide]	–	0.1 to 1	0.0925	–
COc1cccc(Cl)c1S(=O)(=O)c1ccc(CNC(=O)c2cc3cnccc3[nH]2)cc1 [N-({4-[(2-chloro-6-methoxybenzene)sulfonyl]phenyl}methyl)-1H-pyrrolo[3,2-c]pyridine-2-carboxamide]	–	–	0.013	0.003
CC(C)Oc1ccc(Cl)cc1S(=O)(=O)c1ccc(CNC(=O)c2cnc3[nH]ncc3c2)cc1 [N-[(4-{[5-chloro-2-(propan-2-yloxy)benzene]sulfonyl}phenyl)methyl]-1H-pyrazolo[3,4-b]pyridine-5-carboxamide]	0.0678	0.0271	–	–
O=C(NCc1ccc(S(=O)(=O)c2ccccc2)cc1)c1[nH]c2ccncc2c1Br [N-{[4-(benzenesulfonyl)phenyl]methyl}-3-bromo-1H-pyrrolo[3,2-c]pyridine-2-carboxamide]	–	–	0.306	7.39
